These results are taken from patent US8871751B2, “Compositions and methods relating to nuclear hormone and steroid hormone receptors including inhibitors of estrogen receptor alpha-mediated gene expression and inhibition of breast cancer” (The Board of Trustees of the University of Illinois, priority 2008, dated 2014).

Assay [1] addresses T1, human ERα binding to flcERE (Homo sapiens, UniProt P03372).
T1 construct: Full-length FLAG-tagged human ERα was expressed and purified as described previously (27); FLAG; made in house
T1 sequence (P03372 1-595): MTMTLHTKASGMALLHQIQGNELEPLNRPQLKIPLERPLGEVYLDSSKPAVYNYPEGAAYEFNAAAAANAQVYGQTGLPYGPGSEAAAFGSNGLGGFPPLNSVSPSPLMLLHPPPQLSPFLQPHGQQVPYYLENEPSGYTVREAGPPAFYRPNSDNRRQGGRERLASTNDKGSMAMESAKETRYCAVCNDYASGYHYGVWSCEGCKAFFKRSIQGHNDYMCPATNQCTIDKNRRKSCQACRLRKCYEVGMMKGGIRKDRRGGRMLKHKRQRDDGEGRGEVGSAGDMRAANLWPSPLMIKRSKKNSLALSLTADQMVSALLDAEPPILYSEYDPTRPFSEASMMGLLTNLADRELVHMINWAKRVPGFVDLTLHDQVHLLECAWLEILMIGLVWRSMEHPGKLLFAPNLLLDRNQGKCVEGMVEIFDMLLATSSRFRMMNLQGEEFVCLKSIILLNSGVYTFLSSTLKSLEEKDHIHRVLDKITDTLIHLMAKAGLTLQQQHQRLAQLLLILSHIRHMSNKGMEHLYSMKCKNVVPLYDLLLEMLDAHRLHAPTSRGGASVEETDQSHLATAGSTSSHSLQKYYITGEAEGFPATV
The assay can be described thus: FAMA: inhibition of ERα binding to flcERE. The conditions noted are these: FAMA, binding to HRE, 5 concentrations 0.5-10 μM, sequential method; read-out: IC50 ERα. On the procedure:
Prior to screening, the 10 mM library stocks were diluted to produce replica libraries in 384-well plates containing each small molecule at 0.25 mM (in DMSO). In our initial studies we were concerned that forming the flcERE-ERα complex first and then adding the candidate small molecule inhibitors would miss small molecules that bind at the interface. We therefore screened using the “sequential” method in which the candidate small molecules were first incubated with ERα and followed by addition of the flcERE. The assay for binding of ERα to the flcERE is a modification of our earlier assay (27). Assays were carried out at room temperature in black wall 384-well microplates (Greiner/Bio-One) in a total volume of 10 μl in buffer containing 20 mM Tris pH 7.5, 10% glycerol, 0.2 mM EDTA, 2 mM DTT, 100 mM KCl, 0.5 ng/μl poly dl:dC, […] bovine serum albumin and 100 nM 17β-estradiol (E2). For high throughput screening, a master mix without ERα and probe was prepared at 4° C. The master mix was divided into 2 parts. ERα was added to one part to 5 nM in the final assays. 7 μl of the ERα-containing mix was then dispensed into each well of a 384-well plate on ice. 100 nl of the compounds being tested was then added using a pin-transporter (V & P Scientific, Inc, CA) to a final concentration of 2.5 μM. The samples were mixed using the pin-transporter and sedimented by centrifugation for 2 min. at 4° C. and incubated on ice for 10 min. The flcERE probe was added to the other aliquot of the mix to 1 nM. 3 μl of the mix containing the flcERE probe was added to each well containing ERα and the test compound. The samples were mixed using the pin-transporter, the plates were briefly centrifuged and incubated at room temperature for 10 min. and fluorescence anisotropy (FA) was measured using a BMG PheraStar (BMG Labtech) microplate reader (module: 485 520) with excitation at 485λ and emission at 520λ. To identify small molecules that were highly fluorescent, or quench fluorescence, fluorescence intensity was also measured.
(§1) Dose response curves for selected compounds were carried out as described for the HTS screen except that each well contained the indicated concentration of test compound. PR assays were carried out in the same buffer used for ERα assays and contained 1 nM flcPRE and 11 nM PR-B and 100 nM progesterone. The buffer used for AR was similar but also contained 5 μM ZnCl, 5 mM NaF, 0.6 μM CHAPS and 100 nM dihydrotestosterone. AR assays contained 1 nM flcARE and 50 nM full-length wild-type AR.

For assay [2], the target named is T2, human androgen receptor (AR) binding to flARE (Homo sapiens, UniProt P10275).
T2 construct: AR assays contained 1 nM flcARE and 50 nM full-length wild-type AR; FLAG; made in house
T2 sequence (P10275 1-920): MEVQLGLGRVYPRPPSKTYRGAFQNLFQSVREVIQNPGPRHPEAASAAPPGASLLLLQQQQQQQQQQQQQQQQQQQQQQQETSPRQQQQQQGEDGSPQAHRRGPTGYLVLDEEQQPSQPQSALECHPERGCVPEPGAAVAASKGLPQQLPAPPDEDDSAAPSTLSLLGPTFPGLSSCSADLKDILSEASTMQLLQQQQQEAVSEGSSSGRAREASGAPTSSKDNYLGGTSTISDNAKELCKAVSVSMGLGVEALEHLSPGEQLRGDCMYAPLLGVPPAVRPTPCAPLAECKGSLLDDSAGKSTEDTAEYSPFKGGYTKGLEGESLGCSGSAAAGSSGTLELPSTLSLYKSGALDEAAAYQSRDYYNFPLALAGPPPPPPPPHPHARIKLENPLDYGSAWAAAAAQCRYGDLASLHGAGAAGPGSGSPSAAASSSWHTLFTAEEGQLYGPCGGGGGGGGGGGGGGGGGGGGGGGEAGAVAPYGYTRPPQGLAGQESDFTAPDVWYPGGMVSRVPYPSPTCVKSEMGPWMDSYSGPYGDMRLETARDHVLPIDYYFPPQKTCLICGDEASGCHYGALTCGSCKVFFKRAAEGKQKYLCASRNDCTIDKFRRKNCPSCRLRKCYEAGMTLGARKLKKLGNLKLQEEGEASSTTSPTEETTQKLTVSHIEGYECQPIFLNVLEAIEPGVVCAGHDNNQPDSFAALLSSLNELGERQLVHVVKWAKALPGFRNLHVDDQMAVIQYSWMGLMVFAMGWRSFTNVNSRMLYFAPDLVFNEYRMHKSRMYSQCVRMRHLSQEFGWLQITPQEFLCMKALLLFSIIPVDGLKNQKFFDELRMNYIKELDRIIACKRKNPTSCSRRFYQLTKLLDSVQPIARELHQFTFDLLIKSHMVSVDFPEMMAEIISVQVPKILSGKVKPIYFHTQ
Briefly: FAMA: inhibition of AR binding to flcARE. The conditions noted are these: binding to HRE, 5 concentrations 0.5-10 μM, sequential method. The method, then: as §1
(§2) Specificity was evaluated in dose-response studies by quantitative FAMA using purified full-length human PR binding to a fluorescein-labeled progesterone/glucocorticoid response element (flPRE) and full-length human androgen receptor (AR) binding to a fluorescein-labeled androgen response element (flARE).

For assay [3], the target named is T3, human PR-B binding to flPRE (Homo sapiens, UniProt P06401).
T3 construct: FLAG; made in house
T3 sequence (P06401 1-933): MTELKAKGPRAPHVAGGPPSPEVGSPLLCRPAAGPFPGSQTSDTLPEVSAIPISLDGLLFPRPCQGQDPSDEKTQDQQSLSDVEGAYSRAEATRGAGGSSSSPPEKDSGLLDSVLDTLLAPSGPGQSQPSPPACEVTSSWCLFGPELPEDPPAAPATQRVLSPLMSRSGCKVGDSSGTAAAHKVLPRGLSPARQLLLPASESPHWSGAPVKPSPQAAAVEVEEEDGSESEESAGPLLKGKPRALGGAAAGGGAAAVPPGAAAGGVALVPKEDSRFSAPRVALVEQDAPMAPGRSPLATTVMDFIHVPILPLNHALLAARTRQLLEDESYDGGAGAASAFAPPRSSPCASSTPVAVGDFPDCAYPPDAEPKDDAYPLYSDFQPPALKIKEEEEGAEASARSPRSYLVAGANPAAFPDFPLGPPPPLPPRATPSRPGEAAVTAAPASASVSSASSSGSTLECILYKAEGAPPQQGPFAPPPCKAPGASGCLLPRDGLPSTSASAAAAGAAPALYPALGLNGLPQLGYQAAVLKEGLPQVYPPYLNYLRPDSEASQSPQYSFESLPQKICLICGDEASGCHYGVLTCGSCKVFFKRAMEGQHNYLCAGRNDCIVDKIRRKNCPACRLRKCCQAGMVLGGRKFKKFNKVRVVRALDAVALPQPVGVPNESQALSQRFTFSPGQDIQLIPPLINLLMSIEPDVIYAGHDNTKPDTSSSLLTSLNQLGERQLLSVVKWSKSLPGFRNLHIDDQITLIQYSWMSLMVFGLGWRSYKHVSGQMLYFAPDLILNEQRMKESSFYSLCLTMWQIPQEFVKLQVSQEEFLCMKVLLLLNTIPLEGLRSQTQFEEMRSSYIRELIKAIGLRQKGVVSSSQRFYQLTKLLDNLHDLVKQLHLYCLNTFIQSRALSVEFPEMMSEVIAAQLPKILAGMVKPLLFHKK
The assay can be described thus: FAMA: inhibition of PR binding to flcPRE. The conditions noted are these: binding to HRE, 5 concentrations 0.5-10 μM, sequential method. The method, then: as §1, §2

Bounds are passed on as bounds.

Regarding `c1ccc(-c2oc(-c3ccccc3)c(CN3CCCCC3)c2CN2CCCCC2)cc1` [Compound 7473], the IC50 (in general, the concentration needed to halve the response being measured) was 9 µM in assay [1], above 10 µM in assay [2] and above 10 µM in assay [3].

`Cc1ccccc1NCC(C)O` (stereo not drawn) [Compound 7484]: the IC50 in assay [1] was 9.5 µM; in assay [2], above 10 µM; in assay [3], above 10 µM.

Consider `O=C(O)c1cccc2cccc(-c3cccc4cccc(C(=O)O)c34)c12` [Compound 7810], for which the IC50 in assay [1], in assay [2] and in assay [3] was above 10 µM throughout.

As for `C=CCOC(=O)c1ccc(Cl)cc1` [Compound 8216], the results for the IC50 in assay [1], in assay [2] and in assay [3] were 9 µM, above 10 µM and above 10 µM, respectively.

`O=C1C(CO)C(CO)C(CO)C1CO` (stereo not drawn) [Compound 9064]: the IC50 in assay [1], in assay [2] and in assay [3] was above 10 µM in each case.

For `CCCCCCC1(c2cccnc2)NC(=O)NC1=O` (stereo not drawn) [Compound 9503], the results for the IC50 in assay [1], in assay [2] and in assay [3] were 2.6 µM, above 10 µM and above 10 µM, respectively.

Turning to `Nc1c(S(=O)(=O)O)cc(Nc2ccc(S(=O)(=O)O)c(Nc3nc(Cl)nc(Cl)n3)c2)c2c1C(=O)c1ccccc1C2=O` [Compound 9545], the IC50 in assay [1] turned out to be 0.7 µM; in assay [2], 3 µM; in assay [3], 3.8 µM.

Regarding `CCN(CC)CCOc1ccc(Cl)cc1Cc1ccccc1` [Compound 9548], the IC50 in assay [1] was 1 µM; in assay [2] it was 4 µM; in assay [3] it was 5 µM.

`CCCCCN(CCCCC)CCC(O)c1cccc2ccccc12` (stereo not drawn) [Compound 9671]: the IC50 in assay [1], in assay [2] and in assay [3] was above 10 µM in each case.

On to `O=C(Nc1cc[c]([Sb](=[O])([OH])[OH])cc1)c1ccccc1` [Compound 15596], for which the results for the IC50 in assay [1], in assay [2] and in assay [3] were 5 µM, above 10 µM and above 10 µM, respectively.

Regarding `[Cu].c1ccc2c(c1)C1=NC2=NC2=NC(=NC3=NC(=NC4=NC(=N1)c1ccccc14)c1ccccc13)c1ccccc12` [Compound 43628], the concentration for half-maximal inhibition (IC50) in assay [1], in assay [2] and in assay [3] was above 10 µM each time.

With `O=C1NC(=S)NC(=O)C1=Cc1cccc2cc3ccccc3cc12` [Compound 90737], the IC50 in assay [1] is 10 µM; in assay [2], above 10 µM; in assay [3] it was above 10 µM.

On to `CC1=NNC(=S)NCCCN2CCN(CCCNC(=S)NN=C(C)C=NNC(=S)NCCCN3CCN(CCCNC(=S)NN=C1)CC3)CC2` [Compound 91767], for which the IC50 is 8 µM in assay [1], above 10 µM in assay [2] and above 10 µM in assay [3].

Regarding `O=C(O)c1cccc(N=Nc2c(S(=O)(=O)O)ccc3c2C(=O)c2ccccc2C3=O)c1O` [Compound 125908], the IC50 in assay [1] was 3.8 µM; in assay [2], above 10 µM; in assay [3], above 10 µM.

`N#CC(C#N)=CNCCN1CCN(C=C(C#N)C#N)CC1` [Compound 343040]: the IC50 in assay [1], in assay [2] and in assay [3] was above 10 µM throughout.

With `O=C(O)c1nn(-c2ccc(Cl)cc2)c2c1C(=O)c1ccccc1C2=O` [Compound 360494], the IC50 in assay [1], in assay [2] and in assay [3] was above 10 µM throughout.

Regarding `CN1CCc2[nH]nc(-c3n[nH]c4c3CN(C)CC4)c2C1` [Compound 371847], the IC50 in assay [1], in assay [2] and in assay [3] was above 10 µM each time.
